Measurements published in patent US7169815B2, “3-methoxybenzyl thiourea derivatives and improved lipid compositions containing same” (The United States of America as represented by the …, priority 2000, dated 2007).

How the values were obtained:
[1] = OSI test of milkweed seed oil mixed with additive; conditions: 1.0% additive, 130° C.
From the text: (§1) A presently preferred method of determining oxidative stability of lipids and oils employs the Oxidative Stability Index (OSI), which determines the oxidative stability of an oil by passing air through a sample under stringent temperature control. (Firestone, Oxidative Stability Index (OSI): Official Methods of Recommended Practices of the American Oil Chemists' Society (AOCS), 4th Ed. American Oil Chemists Society, Champaign, Ill., AOCS Official Method Cd 12b-92, 1993.) In this method, a stream of air is passed through the oil sample, which aids in the rapid degradation of the triglyceride into volatile organic acids. The air stream flushes the volatile acids from the oil into a conductivity cell containing water where the acids are solubilized. These acids, once dissolved in the water solution, disassociate into ions, thus changing the conductivity of the water. Therefore, a continuous measure of the conductivity of the cell by computer will indicate when a rapid rise in the conductivity occurs that corresponds to the induction point, oxidative failure of the sample. […]
(§2) Unless otherwise stated, Oxidative Stability Index (OSI) values were determined on 5.00 ±0.05 g lipid or oil samples in triplicate according to AOCS Official Method Cd 12b-92 (AOCS, 1993) at 90° C., 110° C. and/or 130° C. on an oxidative stability instrument manufactured by Omnion (Rockland, Mass.). […]

[2] = OSI test of jojoba oil mixed with additive; conditions: 110° C.
From the text: A presently preferred method of determining oxidative stability of lipids and oils employs the Oxidative Stability Index (OSI), which determines the oxidative stability of an oil by passing air through a sample under stringent temperature control. (Firestone, Oxidative Stability Index (OSI): Official Methods of Recommended Practices of the American Oil Chemists' Society (AOCS), 4th Ed. American Oil Chemists Society, Champaign, Ill., AOCS Official Method Cd 12b-92, 1993.) In this method, a stream of air is passed through the oil sample, which aids in the rapid degradation of the triglyceride into volatile organic acids. The air stream flushes the volatile acids from the oil into a conductivity cell containing water where the acids are solubilized. These acids, once dissolved in the water solution, disassociate into ions, thus changing the conductivity of the water. Therefore, a continuous measure of the conductivity of the cell by computer will indicate when a rapid rise in the conductivity occurs that corresponds to the induction point, oxidative failure of the sample. The time to the induction point is the OSI time. […] Saturated fatty acid methyl ester (FAME) standards commercially available from Alltech Associates (Deerfield, Ill.) may be used to calibrate the OSI determinations.
OSI determinations may be performed on an oxidative stability instrument manufactured by Omnion (Rockland, Mass.) using the AOCS method described in the above-disclosed Firestone reference. Lipid or oil samples may be run at 110° C. and FAMEs may be tested at 90° C., with air flow set at 35 kPa with a resulting velocity of about 140 ml/min. A presently preferred method for determining OSI values is described by T. A. Isbell et al., “Oxidative Stability Index of Vegetable Oils in Binary Mixtures with Meadowfoam Oil,” Industrial Crops and Products 9, 115–123 (1999).
Unless otherwise stated, Oxidative Stability Index (OSI) values were determined on 5.00 ±0.05 g lipid or oil samples in triplicate according to AOCS Official Method Cd 12b-92 (AOCS, 1993) at 90° C., 110° C. and/or 130° C. on an oxidative stability instrument manufactured by Omnion (Rockland, Mass.). Details of the procedure have been published by Isbell et al., “Oxidative Stability Index of Vegetable Oils in Binary Mixtures with Meadowfoam Oil,” Ind. Crops Prod. 9, 115–123 (1999). When compounds of the present invention were added to the lipid or oil sample being tested, the compounds (0.1% to 1.0% by weight) were added to the test lipid or oil (20 g) and dissolved or dispersed at room temperature before triplicate 5.00 g samples of lipid or oil with an added compound of the invention were weighed into the OSI test tube. […]

[3] = UVB and UVA molar absorptivities in chloroform; assay type: physicochemical; conditions: 0.01 mg/ml in chloroform
Protocol: The compounds synthesized in Example 3 were tested to determine their ability to absorb […] UVA light. UV spectra of quantitatively weighed and diluted samples (0.01 mg/ml) in chloroform were scanned from 244–450 nm at 240 nm/min on a Beckman DU 640 spectrophotometer (Beckman Coulter, Inc., Fullerton, Calif.). Amax in the 280–320 nm range was determined and converted to molar absorptivity for the UVB region, and Amax in the 320–400 nm range was determined and converted to molar absorptivity for the UVA region.

[4] = OSI test of soybean oil mixed with additive; conditions: 1.0% additive, 130° C.
From the text: as §1, §2

[5] = Oxidative Stability by Rotating Pressure Vessel (RBOT) of refined meadowfoam seed oil plus thiourea compounds
From the text: Another presently preferred method of determining oxidative stability of lipids and oils employs the Oxidative Stability by Rotating Pressure Vessel (RBOT) test. In this test, oxidative stability, determined according to the ASTM D2272-98 test method (ASTM, 2001, “Standard Test Method for Oxidation Stability of Steam Turbine Oils by Rotating Pressure Vessel,” in Book of Standards, Vol. 05.01., American Society for Testing and Materials, West Conshohocken, Pa.), measures the time for oxygen pressure to decrease in a closed stainless steel vessel containing a lipid or oil when heated with a copper coil catalyst. Oxygen taken up by the lipid or oil during the reaction is an indication of oil degradation.
In these experiments, Oxidative Stability by Rotating Pressure Vessel (RBOT) tests were performed with different 3-methoxybenzyl thiourea compounds synthesized in Example 3 that were mixed in different quantities with different mono- and polyunsaturated vegetable oils. Hexane was used to clean and store the copper coils, but all other aspects of the Oxidative Stability by Rotating Pressure Vessel (RBOT) test were the same as in the standard ASTM D2272–98 test method (ASTM, 2001, “Standard Test Method for Oxidation Stability of Steam Turbine Oils by Rotating Pressure Vessel,” in Book of Standards, Vol. 05.01., American Society for Testing and Materials, West Conshohocken, Pa.).

[6] = OSI test of high oleic sunflower oil mixed with additive; conditions: 1.0% additive, 130° C.
From the text: as §1, §2

in vivo = conditions: Artemia salina (brine shrimp), in vivo, other: exposure in seawater in microplate wells
Protocol: (§3) Brine shrimp eggs (Artemia salina) were obtained from Brine Shrimp Direct, Ogden, Utah and stored at 10° C. until used. Eggs (400 mg) were added to 1 l of deionized water containing 40 g of sea salts (Sigma Chemical Co., St. Louis, Mo.).
(§4) Serial dilutions were performed in 100 μl of seawater in triplicate in the wells of a 96-well microplate to give appropriate concentrations. Control wells for both water and DMSO were included with each experiment. […] The number of non-motile, and the total number of, naupli were counted in each well using a binocular microscope (10×).

[7] = tested on: Brine Shrimp (Artemia Salina); experiment: in vivo; conditions: as Table 7 shows
Protocol: as §3, §4

With COc1cccc(CNC(=S)NCc2cccc(OC)c2)c1 [1,3-di(3-methoxybenzyl) thiourea] as the molecule, how does the OSI Time [1] read?
Its OSI Time is 2.78 h.

What about the “improvement of OSI time compared to milkweed oil alone” value [1] of the same molecule?
Its value is 654%.

And the OSI Time ([2]; 0.1% additive)?
Its OSI Time is 64.2 h.

And the “improvement of OSI time compared to jojoba oil alone” value ([2]; 0.1% additive)?
Its value is 30%.

And the OSI Time ([2]; 1% additive)?
Its OSI Time is 168 h.

What about the “improvement of OSI time compared to jojoba oil alone” value ([2]; 1% additive) of the same molecule?
The value was 241%.

And the “UVBMAX Molar Absorptivity” value ([3]; Amax in 280–320 nm)?
Its value is 5367.

And the “UVAMAX Molar Absorptivity” value ([3]; Amax in 320–400 nm)?
The value was 0.0.

What about the OSI Time [4] of the same molecule?
Its OSI Time is 6.4 h.

And the “improvement of OSI time compared to soybean oil alone” value [4]?
Its value is 831%.

What about the “Oxidative Stability (RBOT)” value ([5]; Refined Meadowfoam Seed Oil plus 0.05% compound) of the same molecule?
The value was 33 min.

What about the “Oxidative Stability (RBOT)” value ([5]; Refined Meadowfoam Seed Oil plus 0.1% compound) of the same molecule?
Its value is 40 min.

And the “Oxidative Stability (RBOT)” value ([5]; Refined Meadowfoam Seed Oil plus 0.2% compound)?
Its value is 41 min.

What about the “Oxidative Stability (RBOT)” value ([5]; Refined Meadowfoam Seed Oil plus 1.0% compound) of the same molecule?
The value was 41 min.

And the “Oxidative stability in the RBOT test, in words” value ([5]; addition of 0.1% compound)?
Its value is “doubled”.

What about the OSI Time [6] of the same molecule?
The OSI Time was 157 h.

What about the “improvement of OSI time compared to sunflower oil alone” value [6] of the same molecule?
The value was 1720%.

What about the LC50 at 24 h (in vivo) of the same molecule?
Its LC50 at 24 h is > 1000 µg/mL.

What about the “toxicity against brine shrimp, in words” value [7] of the same molecule?
The value was “very low”.
